Assay results taken from the supplement of paper PMC13207355.

Key:
Details in all cases: exposure time: 72 h
[1] = system: E21 (patient-derived glioblastoma stem cells of mesenchymal subtype); assay: phenotypic distance (Euclidean, principal components) from DMSO controls (arbitrary units); higher = stronger morphological change
[2] = system: FT3469 (normal neural stem cell line); assay: as above
[3] = system: E57 (patient-derived glioblastoma stem cells of mesenchymal subtype); assay: as above
[4] = system: E34 (patient-derived glioblastoma stem cells of proneural subtype); assay: as above
[5] = system: E28 (patient-derived glioblastoma stem cells of classical subtype); assay: as above
[6] = system: E13 (patient-derived glioblastoma stem cells of classical subtype); assay: as above
[7] = system: E31 (patient-derived glioblastoma stem cells of proneural subtype); assay: as above
[8] = system: E21; assay: surviving fraction (nuclei count normalised to DMSO); higher = more cells surviving (less toxic)
[9] = system: FT3469; assay: as above
[10] = system: E57; assay: as above
[11] = system: E34; assay: as above
[12] = system: E28; assay: as above
[13] = system: E13; assay: as above
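Wherever phenotypic distance (Euclidean, principal components) from DMSO controls is given: cell Painting imaging in 384-well plates, CellProfiler features reduced to at least 20 principal components, Euclidean distance versus same-plate DMSO vehicle wells (0.1% v/v), median over six images per well.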
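Wherever surviving fraction (nuclei count normalised to DMSO) is given: nuclei counted by high-content imaging of Hoechst-stained cells in laminin-coated 384-well plates, relative to 0.1% DMSO vehicle wells, with staurosporine as cell-death control.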

CC(C)(C)CC(C)(C)c1ccc(OCCOCC[N+](C)(C)Cc2ccccc2)cc1 [Benzethonium chloride]
phenotypic distance
Details | [1] | [2] | [3] | [4] | [5] | [6] | [7]
4.11523 nM | 0.773 | 0.694 | 0.566 | 0.73 | 0.718 | 0.537 | 0.922
12.34567901 nM | 1.03 | 1.16 | 0.67 | 0.622 | 0.685 | 0.594 | 0.452
37.037 nM | 0.654 | 0.855 | 0.808 | 0.82 | 0.4 | 0.837 | 0.793
111.1111111 nM | 1 | 0.746 | 0.566 | 0.847 | 0.716 | 1.05 | 0.714
333.333 nM | 0.939 | 0.802 | 0.524 | 0.91 | 0.667 | 0.65 | 1.42
1000 nM | 1.3 | 2.79 | 2.04 | 1.21 | 0.382 | 1.22 | 1.81
3000 nM | 3.86 | 2.88 | 4.76 | 2.98 | 4.89 | 4.92 | 12.9

Cc1ccc(C(=O)Nc2ccc(CN3CCN(C)CC3)c(C(F)(F)F)c2)cc1C#Cc1cnc2cccnn12 [Ponatinib]
phenotypic distance
Details | [1] | [2] | [3] | [4] | [5] | [6] | [7]
4.1 nM | 2.02 | 1.73 | 3.43 | 1.37 | 0.791 | 1.34 | 0.882
12.3 nM | 5.3 | 2.15 | 4.1 | 1.08 | 1.19 | 1.37 | 1.09
37 nM | 1.87 | 1.36 | 3.63 | 1.46 | 1.3 | 1.75 | 2.13
111.1 nM | 2.05 | 1.58 | 3.38 | 1.59 | 1.57 | 2.38 | 2.63
333.3 nM | 4.01 | 2.72 | 2.19 | 2.93 | 1.29 | 2.71 | 2.59
1000 nM | 9.73 | 4.78 | 4.53 | 3.77 | 2.75 | 3.02 | 11.1
3000 nM | 9.25 | 8.72 | 5.68 | 5.85 | 3.32 | 5.54 | 8.04

COc1cc2c(NC3CCN(C(C)C)CC3)nc(C3CCCCC3)nc2cc1OCCCN1CCCC1 [UNC0638]
Details | phenotypic distance | surviving fraction
[1], 4.1 nM | 0.389 | –
[1], 12.3 nM | 0.354 | –
[1], 37 nM | 0.463 | –
[1], 111.1 nM | 1.99 | –
[1], 333.3 nM | 0.574 | –
[1], 1000 nM | 0.957 | –
[1], 3000 nM | 2.1 | –
[2], 4.1 nM | 0.514 | –
[2], 12.3 nM | 0.766 | –
[2], 37 nM | 0.527 | –
[2], 111.1 nM | 0.558 | –
[2], 333.3 nM | 0.523 | –
[2], 1000 nM | 0.714 | –
[2], 3000 nM | 3.19 | –
[3], 4.1 nM | 0.284 | –
[3], 12.3 nM | 0.449 | –
[3], 37 nM | 0.421 | –
[3], 111.1 nM | 0.484 | –
[3], 333.3 nM | 0.486 | –
[3], 1000 nM | 0.443 | –
[3], 3000 nM | 1.09 | –
[4], 4.1 nM | 0.461 | –
[4], 12.3 nM | 0.632 | –
[4], 37 nM | 0.627 | –
[4], 111.1 nM | 0.646 | –
[4], 333.3 nM | 0.795 | –
[4], 1000 nM | 0.627 | –
[4], 3000 nM | 0.864 | –
[5], 4.1 nM | 0.389 | –
[5], 12.3 nM | 0.447 | –
[5], 37 nM | 0.394 | –
[5], 111.1 nM | 0.488 | –
[5], 333.3 nM | 0.53 | –
[5], 1000 nM | 0.586 | –
[5], 3000 nM | 1.38 | –
[6], 4.1 nM | 0.43 | –
[6], 12.3 nM | 0.523 | –
[6], 37 nM | 0.48 | –
[6], 111.1 nM | 0.587 | –
[6], 333.3 nM | 0.476 | –
[6], 1000 nM | 0.582 | –
[6], 3000 nM | 1.57 | –
[8], 4.1 nM | – | 0.976
[8], 12.3 nM | – | 0.999
[8], 37 nM | – | 1.11
[8], 111.1 nM | – | 1.02
[8], 333.3 nM | – | 0.976
[8], 1000 nM | – | 0.933
[8], 3000 nM | – | 0.808
[9], 4.1 nM | – | 1.03
[9], 12.3 nM | – | 1.02
[9], 37 nM | – | 0.961
[9], 111.1 nM | – | 0.975
[9], 333.3 nM | – | 0.953
[9], 1000 nM | – | 0.929
[9], 3000 nM | – | 0.864
[10], 4.1 nM | – | 1.03
[10], 12.3 nM | – | 1.02
[10], 37 nM | – | 1.084
[10], 111.1 nM | – | 1.01
[10], 333.3 nM | – | 1.0497
[10], 1000 nM | – | 1.08
[10], 3000 nM | – | 1.05
[11], 4.1 nM | – | 0.998
[11], 12.3 nM | – | 1.1
[11], 37 nM | – | 1.082
[11], 111.1 nM | – | 1.07
[11], 333.3 nM | – | 1.15
[11], 1000 nM | – | 1.07
[11], 3000 nM | – | 0.964
[12], 4.1 nM | – | 1.03
[12], 12.3 nM | – | 0.988
[12], 37 nM | – | 1.01
[12], 111.1 nM | – | 1.01
[12], 333.3 nM | – | 0.967
[12], 1000 nM | – | 1.03
[12], 3000 nM | – | 0.942
[13], 4.1 nM | – | 0.973
[13], 12.3 nM | – | 0.986
[13], 37 nM | – | 0.987
[13], 111.1 nM | – | 0.957
[13], 333.3 nM | – | 1.01
[13], 1000 nM | – | 0.938
[13], 3000 nM | – | 0.894

O=C(/C=C/c1cccnc1)NCCCCC1CCN(C(=O)c2ccccc2)CC1 [Daporinad]
Details | phenotypic distance | surviving fraction
[1], 4.1 nM | 0.674 | –
[1], 12.3 nM | 0.879 | –
[1], 37 nM | 1.12 | –
[1], 111.1 nM | 1.73 | –
[1], 333.3 nM | 2.59 | –
[1], 1000 nM | 2.69 | –
[1], 3000 nM | 2.46 | –
[2], 4.1 nM | 2.48 | –
[2], 12.3 nM | 2 | –
[2], 37 nM | 2.62 | –
[2], 111.1 nM | 2.52 | –
[2], 333.3 nM | 2.17 | –
[2], 1000 nM | 2.56 | –
[2], 3000 nM | 2.25 | –
[3], 4.1 nM | 2.92 | –
[3], 12.3 nM | 3.204 | –
[3], 37 nM | 3.213 | –
[3], 111.1 nM | 3.31 | –
[3], 333.3 nM | 3.19 | –
[3], 1000 nM | 3.44 | –
[3], 3000 nM | 3.491 | –
[4], 4.1 nM | 1.25 | –
[4], 12.3 nM | 1.37 | –
[4], 37 nM | 1.45 | –
[4], 111.1 nM | 1.6 | –
[4], 333.3 nM | 1.35 | –
[4], 1000 nM | 2.32 | –
[4], 3000 nM | 1.37 | –
[5], 4.1 nM | 3.04 | –
[5], 12.3 nM | 3.29 | –
[5], 37 nM | 3.514 | –
[5], 111.1 nM | 3.26 | –
[5], 333.3 nM | 3.25 | –
[5], 1000 nM | 3.51 | –
[5], 3000 nM | 3.47 | –
[6], 4.1 nM | 1.28 | –
[6], 12.3 nM | 2.03 | –
[6], 37 nM | 2.19 | –
[6], 111.1 nM | 2.19 | –
[6], 333.3 nM | 2.17 | –
[6], 1000 nM | 2.27 | –
[6], 3000 nM | 2.04 | –
[8], 4.1 nM | – | 0.918
[8], 12.3 nM | – | 0.977
[8], 37 nM | – | 1.06
[8], 111.1 nM | – | 0.924
[8], 333.3 nM | – | 0.916
[8], 1000 nM | – | 0.916
[8], 3000 nM | – | 0.873
[9], 4.1 nM | – | 0.8405
[9], 12.3 nM | – | 0.956
[9], 37 nM | – | 0.831
[9], 111.1 nM | – | 0.93
[9], 333.3 nM | – | 0.899
[9], 1000 nM | – | 0.892
[9], 3000 nM | – | 0.975
[10], 4.1 nM | – | 0.731
[10], 12.3 nM | – | 0.677
[10], 37 nM | – | 0.693
[10], 111.1 nM | – | 0.71
[10], 333.3 nM | – | 0.668
[10], 1000 nM | – | 0.562
[10], 3000 nM | – | 0.621
[11], 4.1 nM | – | 1.02
[11], 12.3 nM | – | 0.865
[11], 37 nM | – | 0.916
[11], 111.1 nM | – | 0.851
[11], 333.3 nM | – | 0.922
[11], 1000 nM | – | 0.8551
[11], 3000 nM | – | 1.04
[12], 4.1 nM | – | 0.436
[12], 12.3 nM | – | 0.459
[12], 37 nM | – | 0.4196
[12], 111.1 nM | – | 0.415
[12], 333.3 nM | – | 0.423
[12], 1000 nM | – | 0.351
[12], 3000 nM | – | 0.379
[13], 4.1 nM | – | 0.897
[13], 12.3 nM | – | 0.759
[13], 37 nM | – | 0.712
[13], 111.1 nM | – | 0.732
[13], 333.3 nM | – | 0.779
[13], 1000 nM | – | 0.738
[13], 3000 nM | – | 0.728
